Experiments:
[1] = two-compartment model of NI; mean ± spread; cited from earlier work
[2] = human, in vivo
Source text: In two-compartment modeling, there is a central compartment and a peripheral compartment. […] The peripheral compartment contains tissues, including fat and bone, which uptake the drug at a slower rate than the central compartment.
where c1 in [mcg·L^−1] is the drug concentration in the central compartment, c2 in [mcg·L^−1] is the drug concentration in the peripheral compartment, kel in [min^−1] is the elimination rate constant, k12 in [min^−1] is the rate constant of distribution from the central compartment to the peripheral compartment, k21 in [min^−1] is the rate constant of distribution from the peripheral compartment to the central compartment, V1 in [L] is the volume of distribution of the central or first compartment, and u in [mcg·min^−1] represents the input infusion rate of a drug into the system. The constants defined in this model correspond to mass flow rate constants, which are traditionally estimated from empirical PK studies. As such, the formulation of Eq. 1.3 represents the dynamics of drug concentrations in the body in terms of mass flow rate constants. […] This model is time-invariant.
The volume in the central compartment, given in 0.32±0.19 in [L·kg^−1], is converted to
[formula] in [L] by multiplying by 85.41 in [kg], the average weight of the patient cohort. The following values are also derived:
[formula] […] It should be appreciated again these empirical values are mass flow rate constants.
From these parameters, k12, k21, and kel can be derived using the following,

- k12, rate constant of distribution from the central compartment to the peripheral compartment [2]: ≈ 0.0183 min^−1
- k21, rate constant of distribution from the peripheral compartment to the central compartment [2]: ≈ 0.0019 min^−1
- kel, elimination rate constant [2]: ≈ 0.0223 min^−1
Compound: COC(=O)C1=C(C)NC(C)=C(C(=O)OCCN(C)Cc2ccccc2)C1c1cccc([N+](=O)[O-])c1 (stereo not drawn) [NI, nicardipine]
- V1, the volume of distribution in the central compartment [1]: 0.32 ± 0.19 L/kg
- t1/2α, the distribution half-life [1]: 0.278 ± 0.18 h
- t1/2β, the elimination half-life [1]: 11.49 ± 5.76 h

Source: US12653459B2, “Systems, devices, and methods for blood pressure control” (Massachusetts Institute of Technology, priority 2022, dated 2026)
